Where a name gives a salt, the structure may show the parent alone.
Assays:
[1] = target: T1, 5-HT1A receptor (Bos taurus, UniProt F6Q2H9); assay: Affinity for the 5-HT1A receptor (3H-ipsapirone bonding, calf hippocampus membranes); assay type: binding
T1 construct: 5-HT1A receptors in calf hippocampus membranes; from tissue; host or cells: calf hippocampus membranes
T1 sequence (F6Q2H9 1-422): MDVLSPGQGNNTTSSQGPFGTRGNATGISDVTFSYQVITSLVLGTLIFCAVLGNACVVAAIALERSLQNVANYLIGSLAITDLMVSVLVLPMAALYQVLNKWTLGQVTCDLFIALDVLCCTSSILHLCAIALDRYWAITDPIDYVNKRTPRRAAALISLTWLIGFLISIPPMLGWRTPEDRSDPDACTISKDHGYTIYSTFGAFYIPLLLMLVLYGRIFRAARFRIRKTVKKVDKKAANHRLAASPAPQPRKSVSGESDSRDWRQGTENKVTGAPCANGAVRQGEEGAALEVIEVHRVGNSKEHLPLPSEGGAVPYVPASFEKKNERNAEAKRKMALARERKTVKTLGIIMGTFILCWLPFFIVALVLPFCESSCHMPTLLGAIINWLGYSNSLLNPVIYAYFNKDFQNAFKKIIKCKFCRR
Method: [W. U. Dompert et al., Naunyn-Schmiedeberg's Arch. Pharmacol. (1985), 328, 467-470].
The bonding of ^3 H-ipsapirone to 5-HT1A receptors in calf hippocampus membranes is measured in this test.

[2] = target: 5-HT1 receptor; assay: Affinity for the 5-HT1 receptor (receptor-bonding, 3H-serotonin, calf hippocampus membranes); assay type: binding; details: calf hippocampus membrane preparations, 3H-serotonin as radioligand
Method: The high affinity of the compounds according to the invention for 5-hydroxytryptamine receptors of the subtype 1 is shown by way of example in Table [A]. The values stated are data which were determined from receptor-bonding studies using calf hippocampus membrane preparations. ^3 H-Serotonin was used as the radioactively labelled ligand for this purpose.

[3] = target: T2, Dopamine D2 receptor (Rattus norvegicus, UniProt P61169); assay: Dopamine D2 receptor test (3H-sulpiride bonding, rat striatum membranes); assay type: binding; details: Ki calculated from IC50 of displacement curves
T2 construct: membranes from the striatum of the rat; from tissue; host or cells: rat striatum membranes
Method: This test is carried out in accordance with the following literature reference: Imafuku J. (1987), Brain Research 402; 331-338.
The bonding of the selective D2 receptor antagonist ^3 H-sulpiride to membranes from the striatum of the rat is measured here. Compounds which bond to dopamine D2 receptors inhibit the bonding of ^3 H-sulpiride as a function of the concentration. IC50 values are determined from the displacement curves, and the inhibition constants Ki are calculated from these.

[4] = tested on: α-adrenergic; details: in the form of its hydrochloride; Eur. J. Med. Chem. 22 (6), 539-544; cited from earlier work

T2 sequence (P61169 whole entry): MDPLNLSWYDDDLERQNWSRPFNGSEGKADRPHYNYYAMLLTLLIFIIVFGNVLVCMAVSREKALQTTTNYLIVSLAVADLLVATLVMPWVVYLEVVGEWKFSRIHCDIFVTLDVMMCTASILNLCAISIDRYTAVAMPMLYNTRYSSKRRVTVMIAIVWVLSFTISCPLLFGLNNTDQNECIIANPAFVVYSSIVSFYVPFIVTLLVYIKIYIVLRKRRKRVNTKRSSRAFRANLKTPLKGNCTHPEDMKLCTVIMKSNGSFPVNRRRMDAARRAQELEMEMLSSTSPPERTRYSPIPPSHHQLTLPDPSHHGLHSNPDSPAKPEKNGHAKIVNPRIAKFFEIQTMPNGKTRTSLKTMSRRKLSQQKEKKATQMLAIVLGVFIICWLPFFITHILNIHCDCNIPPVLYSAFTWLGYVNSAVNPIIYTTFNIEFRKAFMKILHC

`COc1cccc2c1OC(CN1CCC(c3ccccc3)(c3ccccc3)CC1)CC2` (centres unmarked) [Example 5] gave a Ki [1] of 9.9 nM.
In the case of `COc1cccc2c1OC(CN1CCC(O)(c3cccc(C(F)(F)F)c3)CC1)CC2` (centres unmarked) [Example 9], the Ki [1] is reported as 6 nM.
With `COc1cccc2c1OC(CN1CCC(O)(c3ccc(Cl)cc3)CC1)CC2` (centres unmarked) [Example 1, 2-[4-(4-Chlorophenyl)-4-hydroxy-piperidin-1-yl]methyl-8-methoxy-chroman hydrochloride] the Ki [2] was 22 nM.
Work on `OC1(c2ccc(Cl)cc2)CCN(CC2CCc3ccccc3O2)CC1` (centres unmarked) [Example 4] yielded a Ki [2] of 76 nM and a Ki [3] of 2.5 nM.
For `OC1(c2ccc(Cl)c(C(F)(F)F)c2)CCN(CC2CCc3ccccc3O2)CC1` (centres unmarked) [Example 8], the Ki [3] was 0.9 nM.
In the case of `OC1(c2cccc(C(F)(F)F)c2)CCN(CC2CCc3ccccc3O2)CC1` (centres unmarked) [Example 10], the Ki [3] is reported as 2.3 nM.
In the case of `c1ccc2c(c1)CCC(CN1CCCCC1)O2` (centres unmarked) [1-[(3,4-dihydro-2H-1-benzopyran-2-yl)methyl]piperidine], the α-adrenergic blocking action [4] is given as “having an α-adrenergic blocking action”.
